From US20230096380A1, “COMPOUNDS, COMPOSITIONS, METHODS FOR TREATING DISEASES AND NERVE DAMAGE, AND METHODS FOR PREPARING COMPOUNDS” (CHILDREN'S HOSPITAL MEDICAL CENTER, priority 2020, published 2023)
Entries after “also recorded” stand apart in the source; their conditions may differ.

Legend:
p300 = target: T1, p300 (Rattus norvegicus, UniProt A0ABK0LGW0); test: p300 activity inhibition (FIG. 2)
T1 construct: Isolated rat OPCs were grown in Sato growth medium; endogenous in cells; host or cells: primary rat oligodendrocyte progenitor cells (OPCs) from newborn rat brain

[1] = system: Primary oligodendrocyte progenitor cells (OPCs); test: Rat primary OPC differentiation, immunostaining for MBP, OLIG2 and/or cleaved Caspase 3 (FIGS. 1-6); type: cell-based
Text: FIGS. 1-6. Primary oligodendrocyte progenitor cells (OPCs) were obtained from newborn rat brains after preparation of mixed glial cultures. This method generally follows that found in ZHAO et al. (2018) “Dual Requirement of CHD8 for Chromatin Landscape Establishment and Histone Methyltransferase Recruitment to Promote CNS Myelination and Repair” Dev Cell, Vol. 45, pp. 753-768. Briefly, mixed glial cells were initially cultured in DMEM-F12 medium supplied with 15% FBS, then switched to B104 conditioned medium for 2 days before isolating OPCs by mechanical detachment in an orbital shaker. Isolated rat OPCs were grown in Sato growth medium supplemented with mitogens 10 ng/ml PDGF-AA and 10 ng/ml bFGF. OPCs were then treated with indicated compounds and immunostained with oligodendrocyte myelination markers MBP and OLIG2, and/or a cell death marker cleaved Caspase 3. T3 ((2S)-2-amino-3-[4-(4-hydroxy-3-iodophenoxy)-3,5-diiodophenyl]propanoic acid; CAS 6893-02-3) was used as a positive control; the T3 concentration used was 15 nm.

EAE mice = test: Visual evoked potential (VEP) analyses on EAE mice (FIG. 17); type: in vivo; conditions: EAE mice at the peak of disease, versus Vehicle
Procedure: FIG. 17. Visual evoked potential (VEP) analyses were carried out on EAE mice treated with Vehicle and compound I-1 at the peak of disease. This method generally follows that found in YOU et al. (2011) “Latency delay of visual evoked potential is a real measurement of demyelination in a rat model of optic neuritis” Invest Ophthalmol Vis Sci, Vol. 52, pp. 6911-6918.

[2] = system: Rat oligodendrocyte progenitor cells (OPCs); test: Rat OPC differentiation, MBP and Olig2 immunostaining after 48 h treatment (FIG. 18); type: cell-based; conditions: for OPC differentiation (MBP, Olig2 immunostaining): at the indicated concentration
Procedure: FIG. 18. Methods: This method generally follows that found in WANG et al. (2017) “miR-219 Cooperates with miR-338 in Myelination and Promotes Myelin Repair in the CNS” Dev Cell, Vol. 40, pp. 566-582. Rat oligodendrocyte progenitor cells (OPCs) were seeded on coverslip and treated with compounds, I-1, I-16, I-15, I-13, I-8, and I-17 at the indicated concentration. Cells were immunostained with a mature oligodendrocyte marker MBP and an oligodendrocyte lineage marker Olig2 after 48 h treatment.

[3] = system: experimental autoimmune encephalomyelitis (EAE) demyelinating mouse model; test: EAE demyelinating mouse model induced by myelin peptide MOG35-55 (FIG. 7); type: in vivo; conditions: EAE mice
Text: FIG. 7. This method generally follows that found in WANG et al. (2017) “miR-219 Cooperates with miR-338 in Myelination and Promotes Myelin Repair in the CNS” Dev Cell, Vol. 40, pp. 566-582.

T1 sequence (A0ABK0LGW0 1-2423): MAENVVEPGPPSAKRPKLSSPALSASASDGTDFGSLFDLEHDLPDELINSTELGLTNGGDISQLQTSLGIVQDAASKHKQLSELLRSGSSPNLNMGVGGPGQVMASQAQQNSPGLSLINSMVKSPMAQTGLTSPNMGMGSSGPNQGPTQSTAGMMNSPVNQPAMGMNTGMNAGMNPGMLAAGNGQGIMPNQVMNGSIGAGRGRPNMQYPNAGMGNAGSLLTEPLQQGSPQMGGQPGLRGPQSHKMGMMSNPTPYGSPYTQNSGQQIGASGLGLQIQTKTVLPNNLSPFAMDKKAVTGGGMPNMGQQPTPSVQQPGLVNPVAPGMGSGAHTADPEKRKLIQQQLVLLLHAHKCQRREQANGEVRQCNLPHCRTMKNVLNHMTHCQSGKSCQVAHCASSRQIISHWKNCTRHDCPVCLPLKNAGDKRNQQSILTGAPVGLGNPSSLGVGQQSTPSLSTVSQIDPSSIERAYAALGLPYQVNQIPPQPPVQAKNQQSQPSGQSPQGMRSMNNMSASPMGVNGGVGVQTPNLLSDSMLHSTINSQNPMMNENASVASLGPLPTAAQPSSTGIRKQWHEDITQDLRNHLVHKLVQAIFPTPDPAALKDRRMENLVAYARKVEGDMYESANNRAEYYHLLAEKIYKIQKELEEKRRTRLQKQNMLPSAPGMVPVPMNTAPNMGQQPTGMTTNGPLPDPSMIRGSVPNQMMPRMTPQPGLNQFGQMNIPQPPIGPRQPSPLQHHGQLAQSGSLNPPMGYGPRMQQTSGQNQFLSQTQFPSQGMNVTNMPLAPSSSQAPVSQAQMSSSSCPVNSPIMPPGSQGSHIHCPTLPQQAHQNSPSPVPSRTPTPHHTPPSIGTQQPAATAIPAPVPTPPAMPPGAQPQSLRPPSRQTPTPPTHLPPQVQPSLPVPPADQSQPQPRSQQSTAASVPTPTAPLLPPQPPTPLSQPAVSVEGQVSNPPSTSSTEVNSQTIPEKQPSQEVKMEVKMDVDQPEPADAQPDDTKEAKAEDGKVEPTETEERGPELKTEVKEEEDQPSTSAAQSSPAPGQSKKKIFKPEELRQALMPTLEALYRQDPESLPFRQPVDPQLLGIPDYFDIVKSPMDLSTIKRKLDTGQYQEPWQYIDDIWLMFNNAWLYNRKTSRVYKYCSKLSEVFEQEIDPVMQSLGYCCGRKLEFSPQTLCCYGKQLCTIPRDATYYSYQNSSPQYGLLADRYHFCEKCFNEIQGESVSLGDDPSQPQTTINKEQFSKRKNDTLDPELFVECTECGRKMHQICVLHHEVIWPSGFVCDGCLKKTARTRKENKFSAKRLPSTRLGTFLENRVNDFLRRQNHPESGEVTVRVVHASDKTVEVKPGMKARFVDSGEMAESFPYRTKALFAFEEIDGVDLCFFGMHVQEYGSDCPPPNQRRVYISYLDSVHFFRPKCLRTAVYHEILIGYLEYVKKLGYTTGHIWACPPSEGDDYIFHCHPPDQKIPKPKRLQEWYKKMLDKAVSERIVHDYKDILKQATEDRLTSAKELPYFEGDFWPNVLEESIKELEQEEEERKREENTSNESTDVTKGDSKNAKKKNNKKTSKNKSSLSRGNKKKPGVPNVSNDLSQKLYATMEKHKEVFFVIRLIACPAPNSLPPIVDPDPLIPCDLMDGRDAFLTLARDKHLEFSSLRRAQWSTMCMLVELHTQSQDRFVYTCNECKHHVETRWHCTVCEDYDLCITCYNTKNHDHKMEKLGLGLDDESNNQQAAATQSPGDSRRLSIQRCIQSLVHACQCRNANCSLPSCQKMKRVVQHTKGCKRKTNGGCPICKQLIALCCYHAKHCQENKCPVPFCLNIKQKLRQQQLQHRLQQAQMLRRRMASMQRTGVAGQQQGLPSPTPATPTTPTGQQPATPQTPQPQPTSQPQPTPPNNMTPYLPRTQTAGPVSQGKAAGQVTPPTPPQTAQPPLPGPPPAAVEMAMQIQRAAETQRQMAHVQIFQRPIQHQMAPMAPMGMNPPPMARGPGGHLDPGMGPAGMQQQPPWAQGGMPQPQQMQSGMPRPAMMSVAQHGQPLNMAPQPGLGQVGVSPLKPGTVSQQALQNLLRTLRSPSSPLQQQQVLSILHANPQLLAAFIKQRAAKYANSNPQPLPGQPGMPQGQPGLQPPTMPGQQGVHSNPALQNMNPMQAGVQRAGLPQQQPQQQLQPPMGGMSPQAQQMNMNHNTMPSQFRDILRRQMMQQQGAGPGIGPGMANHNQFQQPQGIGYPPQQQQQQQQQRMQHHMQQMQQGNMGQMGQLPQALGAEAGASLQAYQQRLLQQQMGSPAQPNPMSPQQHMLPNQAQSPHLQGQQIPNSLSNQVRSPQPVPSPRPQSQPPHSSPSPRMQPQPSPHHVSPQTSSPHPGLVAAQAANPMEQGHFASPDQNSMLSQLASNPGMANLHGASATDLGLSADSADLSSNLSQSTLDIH

With `CNC(=O)Nc1ccc2c(c1)CC[C@@]21OC(=O)N(CC(=O)N(Cc2ccc(F)cc2)[C@@H](C)C(F)(F)F)C1=O` [Compound A485] the p300 activity (p300) was “inhibits p300 activity”.
In the case of `Nc1ccccc1NC(=O)c1cnc(NCc2ccccc2)cn1` [Compound I-1], the “myelin MBP+ cell formation 3 days after treatment” value ([1]; 3 days after treatment, FIG. 6) is reported as “enhances myelin MBP+ cell formation”, the “myelin MBP+ cell formation” value ([1]; FIG. 5) is reported as “enhances myelin MBP+ cell formation” and the “oligodendrocyte differentiation and myelination in vitro” value ([1]; rat OPCs, MBP/OLIG2 immunostaining, FIGS. 1-6) is reported as “promoted oligodendrocyte differentiation and myelination in vitro”. The OPC differentiation ([1]; rat primary OPCs, FIGS. 1, 3, 4) was “promotes oligodendrocyte progenitor cell (OPC) differentiation”, the “myelin formation in presence of A485” value ([1]; with p300 inhibitor A485, FIG. 2) was “appears to overcome A485 inhibition to enhance myelin formation” and the “VEP N1 signals” value (EAE mice) was “showed greater and faster conducting VEP N1 signals”. For the same molecule, the “OPC differentiation (MBP, Olig2 immunostaining)” value [2] was “promote OPC differentiation”, the functional regeneration [3] was “promotes functional regeneration” and the “EAE disease severity / motor function (clinical scores)” value ([3]; MOG35-55 induced) was “improved motor function reflected in clinical scores; also recorded: reduced EAE disease severity”.
For `Nc1ccccc1NC(=O)c1cnc(NC(c2ccccc2)c2ccccc2)cn1` [Compound I-8], the “activity in promoting OPC into mature oligodendrocytes relative to compound I-1” value [2] was “comparable activity with compound I-1” and the “OPC differentiation (MBP, Olig2 immunostaining)” value [2] was “promote OPC differentiation”.
`Nc1ccccc1NC(=O)c1cnc(NC(=O)C(c2ccccc2)c2ccccc2)cn1` [Compound I-13] was tested, and the “OPC differentiation (MBP, Olig2 immunostaining)” value [2] was “promote OPC differentiation”.
For `Nc1ccccc1NC(=O)c1cnc(NC2=N[C@H](c3ccccc3)[C@H](c3ccccc3)O2)cn1` [Compound I-15], the “OPC differentiation (MBP, Olig2 immunostaining)” value [2] was “promote OPC differentiation”.
In the case of `CC(C(=O)Nc1cnc(C(=O)Nc2ccccc2N)cn1)c1ccccc1` (centres unmarked) [Compound I-16], the “OPC differentiation (MBP, Olig2 immunostaining)” value [2] is reported as “promote OPC differentiation”.
`Nc1ccccc1NC(=O)c1cnc(NC(=O)C(N)c2ccccc2)cn1` (centres unmarked) [Compound I-17] was tested, and the “activity in promoting OPC into mature oligodendrocytes relative to compound I-1” value [2] was “comparable activity with compound I-1” and the “OPC differentiation (MBP, Olig2 immunostaining)” value [2] was “promote OPC differentiation”.
